This note sets out measurements from ChEMBL document CHEMBL3734710 (Eur J Med Chem, 2015).

Series [1] in a line: in vivo. The note with it: rat, po, 10 mg/kg.
Series [2] can be described thus: in vivo. The note with it: rat, po, 10 mg/kg. The source holds these as a separate data set.
A short description of series [3]: in vivo. The note with it: rat, iv, 5 mg/kg.
Series [4] in a line: in vivo. The note with it: rat, iv, 5 mg/kg. The source holds these as a separate data set.
Series [5] in a line: in vivo. The note with it: rat, po, 10 mg/kg. This is another data set of the same source.
Series [6] can be described thus: in vivo. The note with it: rat, iv, 5 mg/kg. The source holds these as a separate data set.
A short description of series [7]: in vivo. The conditions noted are these: rat, po, 10 mg/kg. This is another data set of the same source.
Series [8] can be described thus: in vivo. The note with it: rat, iv.
Series [9] in a line: in vivo. The conditions noted are these: rat, iv. This is another data set of the same source.
Series [10] in a line: in vivo. The note with it: rat, iv. This is another data set of the same source.

The compound `CC1(C)c2cc(C3CCN(CC4CCOCC4)CC3)ccc2C(=O)c2c1[nH]c1cc(C#N)ccc21` yielded an AUC(0-inf) in series [1] of 7290 ng·h/mL. The compound also showed a Cmax in [2] of 351 ng/mL. In [3], this compound showed a clearance of 14.2 mL/min/kg. This compound gave a half-life in series [4] of 947 min. In series [5], the bioavailability was 67.1%. In [6], the distribution volume (Vd) worked out at 17.4 L/kg. Besides, the Tmax in [7] came out at 4.5 h.

In turn, `CC1(C)c2cc(C3CCN(CC4(O)CCOCC4)CC3)ccc2C(=O)c2c1[nH]c1cc(C#N)ccc21` showed an AUC(0-inf) in series [1] of 1940 ng·h/mL. In [2], this compound had a Cmax of 192 ng/mL. Moreover, the clearance in series [3] was 38 mL/min/kg. Moreover, in [4], the half-life was 325 min. This compound also came in with a bioavailability in series [5] of 42.4%. The Vd in series [6] came to 12.9 L/kg. For the same compound, the Tmax in series [7] came out at 3.3 h.

In turn, `CCc1cc2c(cc1-c1cnn(CC(=O)N(C)C)c1)C(C)(C)c1[nH]c3cc(C#N)ccc3c1C2=O` displayed an AUC(0-inf) in [1] of 1350 ng·h/mL. In addition, in series [2], the peak level (Cmax) was 218 ng/mL. Moreover, in [8], the half-life was 226 min. For the same compound, in [9], the Vd amounted to 1.17 L/kg. Further, the bioavailability in series [5] stood at 7.1%. In series [7], the Tmax was determined as 3.3 h. Also, the clearance in series [10] is 10.8 mL/min/kg.

What is called AUC(0-inf) is the area under the concentration-time curve extrapolated to infinity. Higher therefore signals high exposure. In general, Cmax refers to the peak of the concentration-time curve. Usually clearance stands for the volume of plasma or blood freed of the substance per unit of time. Read a low clearance as inefficient removal. As usually defined, the half-life is how long it takes for the measured level to halve. The low end stands for rapid decline, the high end for slow decline. For orientation: bioavailability means dose-corrected exposure relative to a reference, in per cent. A lower bioavailability goes with poor availability. Broadly, the Vd is a proportionality between amount in the body and measured concentration, not a real space. By Tmax is commonly meant the time at which the peak concentration occurs.
